The NIST ThermoML archive (doi:10.1016/j.jct.2008.10.010)

Assay: molar heat capacity at constant pressure; xn = mol fraction of the nth substance listed
Conditions: 101.3 kPa, Liquid, Small sample (50 mg) DSC

CCC(C)(C)O [2-methylbutan-2-ol] + CCCCCCC
Conditions | molar heat capacity at constant pressure [J/K/mol]
300.15 K, x1 = 0.7015 | 252.48
300.15 K, x1 = 0.8023 | 251.41
300.15 K, x1 = 0.9139 | 250.21
300.15 K, x1 = 0.9609 | 249.66
301.14 K, x1 = 0.0061 | 225.7
301.14 K, x1 = 0.0494 | 236.34
301.14 K, x1 = 0.1 | 242.42
301.14 K, x1 = 0.1999 | 248.44
301.14 K, x1 = 0.2993 | 251.7
301.14 K, x1 = 0.4051 | 253.31
301.14 K, x1 = 0.4986 | 253.99
301.14 K, x1 = 0.5981 | 254.13
301.14 K, x1 = 0.7015 | 253.67
301.14 K, x1 = 0.8023 | 252.61
301.14 K, x1 = 0.9139 | 251.4
301.14 K, x1 = 0.9609 | 250.8
301.16 K, x1 = 0.0249 | 230.74
301.58 K, x1 = 0.1547 | 246.46
302.14 K, x1 = 0.0061 | 226.13
302.14 K, x1 = 0.0249 | 231.02
302.14 K, x1 = 0.0494 | 236.64
302.14 K, x1 = 0.1 | 243.03
302.14 K, x1 = 0.1547 | 246.89
302.14 K, x1 = 0.1999 | 249.24
302.14 K, x1 = 0.2993 | 252.65
302.14 K, x1 = 0.4051 | 254.36
302.14 K, x1 = 0.4986 | 255.15
302.14 K, x1 = 0.5981 | 255.29
302.14 K, x1 = 0.7015 | 254.9
302.14 K, x1 = 0.8023 | 253.83
302.14 K, x1 = 0.9139 | 252.62
302.14 K, x1 = 0.9609 | 251.98
303.15 K, x1 = 0.0061 | 226.42
303.15 K, x1 = 0.0249 | 231.23
303.15 K, x1 = 0.0494 | 236.93
303.15 K, x1 = 0.1 | 243.44
303.15 K, x1 = 0.1547 | 247.5
303.15 K, x1 = 0.1999 | 249.92
303.15 K, x1 = 0.2993 | 253.53
303.15 K, x1 = 0.4051 | 255.32
303.15 K, x1 = 0.4986 | 256.2
303.15 K, x1 = 0.5981 | 256.41
303.15 K, x1 = 0.7015 | 256.05
303.15 K, x1 = 0.8023 | 255
303.15 K, x1 = 0.9139 | 254.11
303.15 K, x1 = 0.9609 | 253.07
304.14 K, x1 = 0.0061 | 226.83
304.14 K, x1 = 0.0494 | 237.28
304.14 K, x1 = 0.1 | 243.93
304.14 K, x1 = 0.1547 | 248.12
304.14 K, x1 = 0.1999 | 250.66
304.14 K, x1 = 0.4986 | 257.22
304.14 K, x1 = 0.8023 | 256.13
304.14 K, x1 = 0.9139 | 254.91
304.14 K, x1 = 0.9609 | 254.18
304.16 K, x1 = 0.0249 | 231.5
304.16 K, x1 = 0.2993 | 254.39
304.16 K, x1 = 0.4051 | 256.27
304.16 K, x1 = 0.5981 | 257.54
304.16 K, x1 = 0.7015 | 257.2
305.14 K, x1 = 0.0061 | 227.18
305.14 K, x1 = 0.0249 | 231.73
305.14 K, x1 = 0.0494 | 237.51
305.14 K, x1 = 0.1 | 244.44
305.14 K, x1 = 0.1547 | 248.76
305.14 K, x1 = 0.1999 | 251.35
305.14 K, x1 = 0.2993 | 255.22
305.14 K, x1 = 0.4051 | 257.25
305.14 K, x1 = 0.4986 | 258.3
305.14 K, x1 = 0.5981 | 258.63
305.14 K, x1 = 0.7015 | 258.36
305.14 K, x1 = 0.8023 | 257.38
305.14 K, x1 = 0.9139 | 256.1
305.14 K, x1 = 0.9609 | 255.35
306.15 K, x1 = 0.0061 | 227.53
306.15 K, x1 = 0.0249 | 231.92
306.15 K, x1 = 0.0494 | 237.81
306.15 K, x1 = 0.1 | 244.85
306.15 K, x1 = 0.1547 | 249.34
306.15 K, x1 = 0.1999 | 252.03
306.15 K, x1 = 0.2993 | 256.04
306.15 K, x1 = 0.4051 | 258.23
306.15 K, x1 = 0.4986 | 259.33
306.15 K, x1 = 0.5981 | 259.69
306.15 K, x1 = 0.7015 | 259.47
306.15 K, x1 = 0.8023 | 258.63
306.15 K, x1 = 0.9139 | 257.22
306.15 K, x1 = 0.9609 | 256.43
307.14 K, x1 = 0.0061 | 227.97
307.16 K, x1 = 0.0249 | 232.13
307.16 K, x1 = 0.0494 | 238.05
307.16 K, x1 = 0.1 | 245.3
307.16 K, x1 = 0.1547 | 249.89
307.16 K, x1 = 0.1999 | 252.7
307.16 K, x1 = 0.2993 | 256.85
307.16 K, x1 = 0.4051 | 259.16
307.16 K, x1 = 0.4986 | 260.39
307.16 K, x1 = 0.5981 | 260.8
307.16 K, x1 = 0.7015 | 260.58
307.16 K, x1 = 0.8023 | 259.83
307.16 K, x1 = 0.9139 | 258.36
307.16 K, x1 = 0.9609 | 257.53
308.14 K, x1 = 0.0061 | 228.36
308.14 K, x1 = 0.0249 | 232.33
308.14 K, x1 = 0.0494 | 238.3
308.14 K, x1 = 0.1 | 245.7
308.14 K, x1 = 0.2993 | 257.61
308.14 K, x1 = 0.4051 | 260.05
308.14 K, x1 = 0.4986 | 261.33
308.14 K, x1 = 0.5981 | 261.79
308.14 K, x1 = 0.7015 | 261.67
308.14 K, x1 = 0.8023 | 260.9
308.14 K, x1 = 0.9139 | 259.4
308.14 K, x1 = 0.9609 | 258.61
308.16 K, x1 = 0.1547 | 250.43
308.16 K, x1 = 0.1999 | 253.31
309.15 K, x1 = 0.0061 | 228.7
309.15 K, x1 = 0.0249 | 232.53
309.15 K, x1 = 0.0494 | 238.53
309.15 K, x1 = 0.1 | 246.14
309.15 K, x1 = 0.1547 | 250.99
309.15 K, x1 = 0.1999 | 253.95
309.15 K, x1 = 0.2993 | 258.43
309.15 K, x1 = 0.4051 | 260.95
